Measurements taken from ChEMBL document CHEMBL3272098, “Reactions of 2-acyloxyisobutyryl halides with nucleosides. 7. Synthesis and biological evaluation of some 2,2'-anhydro-1(3',5'-di-O-acyl-beta-D-arabinofuranosyl)cytosine hydrochlorides” (J Med Chem, 1976).
The source made the active and inactive calls. No cut-off for these calls is given here.

These compounds were tested on HeLa (assay: Cytotoxicity against human HeLa cells after 48 hrs by Coulter counting analysis). Details: read-out: ED50 (the source's name).
Assay type: functional
`CCCC(=O)OC[C@H]1O[C@@H]2[C@@H](Oc3nc(=N)ccn32)[C@@H]1OC(=O)CCC.Cl` gave an EC50 of 0.11 µg/mL.
Work on `CCCCCCCC/C=C\CCCCCCCC(=O)OC[C@H]1O[C@@H]2[C@@H](Oc3nc(=N)ccn32)[C@@H]1OC(=O)CCCCCCC/C=C\CCCCCCCC.Cl` yielded an EC50 of 0.3 µg/mL.

The compounds below were run on Vaccinia virus (assay: Antiviral activity against Vaccinia virus IHD infected in African green monkey BGM cells after 6 days by plaque reduction assay). Details: Orthopoxvirus vaccinia, 144 h, read-out: ED50 (the source's name).
Assay type: functional
`CCCC(=O)OC[C@H]1O[C@@H]2[C@@H](Oc3nc(=N)ccn32)[C@@H]1OC(=O)CCC.Cl` was tested, and the EC50 was 1.55 µM.
For `CCCCCCCC/C=C\CCCCCCCC(=O)OC[C@H]1O[C@@H]2[C@@H](Oc3nc(=N)ccn32)[C@@H]1OC(=O)CCCCCCC/C=C\CCCCCCCC.Cl`, the EC50 was 3.2 µM.

The compounds below were run on Herpesviridae sp. (assay: Antiviral activity against Herpes simplex virus HF infected in African green monkey BGM cells after 6 days by plaque reduction assay). Details: 144 h, read-out: ED50 (the source's name).
Assay type: functional
Work on `CCCC(=O)OC[C@H]1O[C@@H]2[C@@H](Oc3nc(=N)ccn32)[C@@H]1OC(=O)CCC.Cl` yielded an EC50 of 4.9 µM.
Compound `CCCCCCCC/C=C\CCCCCCCC(=O)OC[C@H]1O[C@@H]2[C@@H](Oc3nc(=N)ccn32)[C@@H]1OC(=O)CCCCCCC/C=C\CCCCCCCC.Cl` has an EC50 of 8.5 µM.

The compounds below were run on BGM (assay: Antiviral activity against Poliovirus type 1 Mahoney infected in African green monkey BGM cells after 5 days by pulp disk diffusion assay). Details: Human poliovirus 1 Mahoney.
Assay type: functional, cell-based
For `CCCC(=O)OC[C@H]1O[C@@H]2[C@@H](Oc3nc(=N)ccn32)[C@@H]1OC(=O)CCC.Cl`, the Activity was “inactive”.
For `CCCCCCCC/C=C\CCCCCCCC(=O)OC[C@H]1O[C@@H]2[C@@H](Oc3nc(=N)ccn32)[C@@H]1OC(=O)CCCCCCC/C=C\CCCCCCCC.Cl`, the Activity was “inactive”.

The compounds below were run on Measles morbillivirus (assay: Antiviral activity against Measles virus infected in African green monkey BGM cells after 5 days by pulp disk diffusion assay). Details: not given.
Assay type: functional, organism-based
With `CCCC(=O)OC[C@H]1O[C@@H]2[C@@H](Oc3nc(=N)ccn32)[C@@H]1OC(=O)CCC.Cl` the Activity was “inactive”.
For `CCCCCCCC/C=C\CCCCCCCC(=O)OC[C@H]1O[C@@H]2[C@@H](Oc3nc(=N)ccn32)[C@@H]1OC(=O)CCCCCCC/C=C\CCCCCCCC.Cl`, the Activity was “inactive”.

The compounds below were run on unidentified influenza virus (assay: Antiviral activity against Influenza virus Ao/WNS infected in monkey LLC-MK2 cells after 5 days by pulp disk diffusion assay). Details: not given.
Assay type: functional, organism-based
With `CCCC(=O)OC[C@H]1O[C@@H]2[C@@H](Oc3nc(=N)ccn32)[C@@H]1OC(=O)CCC.Cl` the Activity was “inactive”.
In the case of `CCCCCCCC/C=C\CCCCCCCC(=O)OC[C@H]1O[C@@H]2[C@@H](Oc3nc(=N)ccn32)[C@@H]1OC(=O)CCCCCCC/C=C\CCCCCCCC.Cl`, the Activity is reported as “inactive”.

The compounds below were run on L1210 (assay: Antitumor activity against mouse L1210 cells allografted in BDF1 mouse assessed as increase in life span at 50 mg/kg, ip administered 24 hrs post-implantation measured up to 30 days relative to control). Details: route intraperitoneal.
Assay type: functional
With `CCCCCCCC/C=C\CCCCCCCC(=O)OC[C@H]1O[C@@H]2[C@@H](Oc3nc(=N)ccn32)[C@@H]1OC(=O)CCCCCCC/C=C\CCCCCCCC.Cl` the ILS at 50 mg/kg was > 141%.

Each compound was assayed on L1210 (assay: Antitumor activity against mouse L1210 cells allografted in BDF1 mouse assessed as increase in life span at 200 mg/kg, ip administered 24 hrs post-implantation measured up to 30 days relative to control). Details: route intraperitoneal.
Assay type: functional
In the case of `CCCC(=O)OC[C@H]1O[C@@H]2[C@@H](Oc3nc(=N)ccn32)[C@@H]1OC(=O)CCC.Cl`, the ILS at 200 mg/kg is reported as 58%.
For `CCCCCCCC/C=C\CCCCCCCC(=O)OC[C@H]1O[C@@H]2[C@@H](Oc3nc(=N)ccn32)[C@@H]1OC(=O)CCCCCCC/C=C\CCCCCCCC.Cl`, the ILS at 200 mg/kg was > 257%.

What follows are compounds tested on L1210 (assay: Antitumor activity against mouse L1210 cells allografted in BDF1 mouse assessed as increase in life span at 500 mg/kg, ip administered 24 hrs post-implantation measured up to 30 days relative to control). Details: route intraperitoneal.
Assay type: functional
`CCCC(=O)OC[C@H]1O[C@@H]2[C@@H](Oc3nc(=N)ccn32)[C@@H]1OC(=O)CCC.Cl` showed an ILS at 500 mg/kg of 85%.

What follows are compounds tested on Mus musculus (assay: Toxicity in BDF1 mouse allografted with mouse L1210 cells assessed as reduction in average life span at 500 mg/kg, ip administered 24 hrs post-implantation measured up to 30 days relative to control). Details: in vivo.
Assay type: organism-based
Design: dose 500 mg/kg, route intraperitoneal; scale not given: the % may be the effect or the level left
For `CCCCCCCC/C=C\CCCCCCCC(=O)OC[C@H]1O[C@@H]2[C@@H](Oc3nc(=N)ccn32)[C@@H]1OC(=O)CCCCCCC/C=C\CCCCCCCC.Cl`, the Activity was 23%.

Each compound was assayed on Mus musculus (assay: Toxicity in BDF1 mouse allografted with mouse L1210 cells assessed as reduction in average life span at 1000 mg/kg, ip administered 24 hrs post-implantation measured up to 30 days relative to control). Details: in vivo.
Assay type: organism-based
Design: dose 1000 mg/kg, route intraperitoneal; scale not given: the % may be the effect or the level left
`CCCC(=O)OC[C@H]1O[C@@H]2[C@@H](Oc3nc(=N)ccn32)[C@@H]1OC(=O)CCC.Cl` gave an Activity of 100%.
`CCCCCCCC/C=C\CCCCCCCC(=O)OC[C@H]1O[C@@H]2[C@@H](Oc3nc(=N)ccn32)[C@@H]1OC(=O)CCCCCCC/C=C\CCCCCCCC.Cl` gave an Activity of 31%.

What follows are compounds tested on L1210 (assay: Antitumor activity against mouse L1210 cells allografted in BDF1 mouse assessed as survival at 200 mg/kg, ip administered 24 hrs post-implantation after 30 days). Details: not given.
Assay type: functional, organism-based
Design: dose 200 mg/kg
With `CCCC(=O)OC[C@H]1O[C@@H]2[C@@H](Oc3nc(=N)ccn32)[C@@H]1OC(=O)CCC.Cl` the Activity was “inactive”.
With `CCCCCCCC/C=C\CCCCCCCC(=O)OC[C@H]1O[C@@H]2[C@@H](Oc3nc(=N)ccn32)[C@@H]1OC(=O)CCCCCCC/C=C\CCCCCCCC.Cl` the Activity was “Active”.

The compounds below were run on L1210 (assay: Antitumor activity against mouse L1210 cells allografted in BDF1 mouse assessed as survival at 500 mg/kg, ip administered 24 hrs post-implantation after 30 days). Details: not given.
Assay type: functional, organism-based
Design: dose 500 mg/kg
For `CCCC(=O)OC[C@H]1O[C@@H]2[C@@H](Oc3nc(=N)ccn32)[C@@H]1OC(=O)CCC.Cl`, the Activity was “inactive”.

What follows are compounds tested on Mus musculus (assay: Toxicity in BDF1 mouse allografted with mouse L1210 cells assessed as survival at 500 mg/kg, ip administered 24 hrs post-implantation after 30 days). Details: in vivo, 720 h.
Assay type: organism-based
Design: dose 500 mg/kg, route intraperitoneal
In the case of `CCCCCCCC/C=C\CCCCCCCC(=O)OC[C@H]1O[C@@H]2[C@@H](Oc3nc(=N)ccn32)[C@@H]1OC(=O)CCCCCCC/C=C\CCCCCCCC.Cl`, the Activity is reported as “Toxic”.

The compounds below were run on Mus musculus (assay: Toxicity in BDF1 mouse allografted with mouse L1210 cells assessed as survival at 1000 mg/kg, ip administered 24 hrs post-implantation after 30 days). Details: in vivo, 720 h.
Assay type: organism-based
Design: dose 1000 mg/kg, route intraperitoneal
`CCCC(=O)OC[C@H]1O[C@@H]2[C@@H](Oc3nc(=N)ccn32)[C@@H]1OC(=O)CCC.Cl` was tested, and the Activity was “Toxic”.
For `CCCCCCCC/C=C\CCCCCCCC(=O)OC[C@H]1O[C@@H]2[C@@H](Oc3nc(=N)ccn32)[C@@H]1OC(=O)CCCCCCC/C=C\CCCCCCCC.Cl`, the Activity was “Toxic”.

What follows are compounds tested on L1210 (assay: Antitumor activity against mouse L1210 cells allografted in po dosed BDF1 mouse administered 24 hrs post-implantation). Details: not given.
Assay type: functional, organism-based
For `CCCC(=O)OC[C@H]1O[C@@H]2[C@@H](Oc3nc(=N)ccn32)[C@@H]1OC(=O)CCC.Cl`, the Activity was “inactive”.
`CCCCCCCC/C=C\CCCCCCCC(=O)OC[C@H]1O[C@@H]2[C@@H](Oc3nc(=N)ccn32)[C@@H]1OC(=O)CCCCCCC/C=C\CCCCCCCC.Cl` was tested, and the Activity was “inactive”.
